Data: patent publication US12440471B2, “Compositions and methods for the treatment of bronchopulmonary dysplasia (BPD) and BPD-associated pulmonary hypertension” (AyuVis Research, Inc., priority 2021, dated 2025)

Target: T1, TLR4 (Homo sapiens, UniProt O00206)
T1 construct: Cell lysates were prepared, total protein was quantified and treated with different concentrations; host or cells: THP-1 cells stimulated with PMA for 48 h, then lysed
Assay: TLR4 level in THP-1 human monocytic cells by ELISA
Assay type: cell-based

T1 sequence (O00206 24-839): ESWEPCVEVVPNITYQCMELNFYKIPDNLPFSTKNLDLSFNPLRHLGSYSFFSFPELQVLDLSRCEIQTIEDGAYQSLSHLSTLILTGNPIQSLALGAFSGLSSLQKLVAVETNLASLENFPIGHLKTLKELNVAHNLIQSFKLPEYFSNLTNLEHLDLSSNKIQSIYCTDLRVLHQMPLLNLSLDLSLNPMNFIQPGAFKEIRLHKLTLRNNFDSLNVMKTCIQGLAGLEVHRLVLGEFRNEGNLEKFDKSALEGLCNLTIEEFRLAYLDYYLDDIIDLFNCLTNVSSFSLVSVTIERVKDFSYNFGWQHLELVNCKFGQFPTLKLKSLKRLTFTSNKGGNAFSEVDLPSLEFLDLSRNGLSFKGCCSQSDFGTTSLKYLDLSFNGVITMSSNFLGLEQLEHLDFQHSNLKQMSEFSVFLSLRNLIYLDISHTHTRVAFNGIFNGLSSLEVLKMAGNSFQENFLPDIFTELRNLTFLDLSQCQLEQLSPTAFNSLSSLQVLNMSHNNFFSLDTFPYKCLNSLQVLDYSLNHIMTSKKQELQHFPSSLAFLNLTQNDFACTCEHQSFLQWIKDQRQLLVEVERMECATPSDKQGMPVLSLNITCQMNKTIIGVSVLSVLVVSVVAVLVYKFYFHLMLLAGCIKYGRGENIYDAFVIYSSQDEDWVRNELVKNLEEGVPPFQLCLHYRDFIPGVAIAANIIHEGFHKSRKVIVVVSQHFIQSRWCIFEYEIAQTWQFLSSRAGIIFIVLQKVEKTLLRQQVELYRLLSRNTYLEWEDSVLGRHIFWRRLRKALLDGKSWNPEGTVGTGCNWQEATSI

Q: What does the source list for `CC(=O)N[C@@H]1C(Oc2ccc([N+](=O)[O-])cc2)OC(CO)C(O)C1O` (some centres unmarked) [AVR-48]?
A: EC50, binding to monocytes/macrophages possibly via surface receptor TLR4: sub nanomolar; DC50 (THP-1 cells, after 48 h of treatment, ELISA, read-out: EC50, decrease of TLR4 level): 76 nM
